The structures appear in SMILES notation.

Eleven molecules from patent US9440969B2, “Compounds and methods for kinase modulation, and indications therefor” (PLEXXIKON INC., priority 2009, dated 2016) can be followed below.

A short description of data set [1]: Relative solubility by turbidity in aqueous buffers (pH 1.5, 4.5, 6.8, 7.4). The data set is classed as physicochemical. The settings on record: for turbidity threshold (L, M, H) 1.4: pH 1.5 buffer (SGF); for turbidity threshold (L, M, H) 4.5: pH 4.5 buffer (SIF); for turbidity threshold (L, M, H) 6.8: pH 6.8 buffer (SIF); for turbidity threshold (L, M, H) 7.4: pH 7.4 buffer (HEPES). Summed up: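 2-fold DMSO dilution series from 25 mM stocks were added to SGF (0.5M NaCl, pH 1.5), SIF (0.05M NaH2PO4, pH 4.5/6.8) or HEPES (10 mM, 150 mM NaCl, pH 7.4). Absorbance at 490, 535 and 650 nm; value is the concentration crossing OD 0.01, averaged over wavelengths. Low <31.3 μM, moderate 31.3–250 μM, high >250 μM.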

In a further data set the target is CYP3A4(BQ) (Homo sapiens, UniProt P08684). The data set can be described thus: CYP3A4 inhibition (substrate BQ). The data set is classed as in vitro ADME. The conditions noted are these: read-out: Cyp IC50 (μM) 3A4(BQ). The procedure:
CYP (Cytochrome P450) enzymes are the major drug metabolizing enzymes present in the liver. The inhibition of CYP enzyme activity (IC50) for each of CYP1A2, CYP2C19, CYP2C9, CYP2D6, CYP3A4(BFC) and CYP3A4(BQ) is determined for compounds, where inhibition of metabolism of a known substrate leads to a decrease in the fluorescence of the metabolized product. The fluorescence of the product is monitored as a function of compound concentration. Compounds are dissolved in dimethyl sulfoxide to a concentration of 100 mM. These are diluted […], into 82 μL of acetonitrile. An 11 μL aliquot of this solution is then added to 204 μL of cofactor mix (1.3% NADPH Regeneration system Solution A, 1.04% NADPH Regeneration system Solution B from BD Biosciences, 5% acetonitrile and 0.05% dimethyl sulfoxide). These are then serially diluted 1:1 (160 μL to 160 μL co-factor mix) for a total of 10 points. A 10 μL aliquot of this final mixture is dispensed into 384 well assay plates and incubated for 10 minutes at 37° C. Enzyme and substrate mix (10 μL; 0.5 pmol CYP1A2/5 μM CEC; 1.0 pmol CYP2C9/75 μM MFC; 0.5 pmol CYP2C19/25 μM CEC; 1.5 pmol CYP2D6/1.5 μM AMMC; 1.0 pmol CYP3A4/50 μM BFC; or 1.0 pmol CYP3A4/40 μM BQ) is added to these assay plates. Assay plates are incubated at 37° C. (CYP1A2-15 min; CYP2C9-45 min; CYP2C19, 2D6 and 3A4-30 min) and read in a Tecan Safire 2 plate reader (CYP1A2, 2C19 and 3A4 409 ex/460 em; CYP2C9 and 2D6 409 ex/530 em). The signal versus compound concentration is used to determine the IC50. The enzymes and substrates for this assay are obtained from BD Biosciences.

Sequence of CYP3A4(BQ) (P08684 whole entry): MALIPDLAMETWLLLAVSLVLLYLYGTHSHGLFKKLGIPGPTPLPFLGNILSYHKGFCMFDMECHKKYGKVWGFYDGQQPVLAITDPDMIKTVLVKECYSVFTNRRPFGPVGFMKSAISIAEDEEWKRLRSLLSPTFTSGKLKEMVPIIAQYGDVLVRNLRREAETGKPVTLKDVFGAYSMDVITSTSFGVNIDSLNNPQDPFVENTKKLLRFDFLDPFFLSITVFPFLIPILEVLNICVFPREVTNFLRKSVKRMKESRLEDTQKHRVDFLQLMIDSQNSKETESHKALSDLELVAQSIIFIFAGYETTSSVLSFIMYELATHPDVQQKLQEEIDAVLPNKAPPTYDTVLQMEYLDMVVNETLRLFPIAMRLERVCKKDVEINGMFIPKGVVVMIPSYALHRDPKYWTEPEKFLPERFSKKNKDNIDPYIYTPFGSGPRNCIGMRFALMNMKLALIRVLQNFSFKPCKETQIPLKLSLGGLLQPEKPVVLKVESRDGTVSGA

In general, IC50 refers to the point on the concentration scale where inhibition reaches its midpoint. As to `CCCS(=O)(=O)Nc1ccc(F)c(C(=O)c2c[nH]c3ncc(-c4ccc5[nH]ccc5c4)cc23)c1F` [P-0012, Propane-1-sulfonic acid {2,4-difluoro-3-[5-(1H-indol-5-yl)-1H-pyrrolo[2,3-b]pyridine-3-carbonyl]-phenyl}-amide], in data set [1], the “turbidity threshold (L, M, H) 1.4” value is given as “L (low solubility if the threshold concentration is <31.3 μM)”; the “turbidity threshold (L, M, H) 4.5” value is on record as “L (low solubility if the threshold concentration is <31.3 μM)”; the “turbidity threshold (L, M, H) 6.8” value was “L (low solubility if the threshold concentration is <31.3 μM)”; the “turbidity threshold (L, M, H) 7.4” value is “L (low solubility if the threshold concentration is <31.3 μM)”. Besides, the IC50 at CYP3A4(BQ) is over 10 µM.

For `Cc1ccc(-c2cnc3[nH]cc(C(=O)c4c(F)ccc(NS(=O)(=O)c5cc(F)ccc5F)c4F)c3c2)cn1` [P-1408, N-{2,4-Difluoro-3-[5-(6-methyl-pyridin-3-yl)-1H-pyrrolo[2,3-b]pyridine-3-carbonyl]-phenyl}-2,5-difluoro-benzenesulfonamide], in data set [1], the “turbidity threshold (L, M, H) 1.4” value is given as “M (moderate solubility if the threshold concentration is 31.3 μM to 250 μM)”; the “turbidity threshold (L, M, H) 4.5” value is “L (low solubility if the threshold concentration is <31.3 μM)”; the “turbidity threshold (L, M, H) 6.8” value is listed as “L (low solubility if the threshold concentration is <31.3 μM)”; the “turbidity threshold (L, M, H) 7.4” value was “L (low solubility if the threshold concentration is <31.3 μM)”. The IC50 at CYP3A4(BQ) is over 10 µM.

Take `CCCS(=O)(=O)Nc1ccc(F)c(C(=O)c2c[nH]c3ncc(-c4ccc5nn(C)cc5c4)cc23)c1F` [P-0010, Propane-1-sulfonic acid {2,4-difluoro-3-[5-(2-methyl-2H-indazol-5-yl)-1H-pyrrolo[2,3-b]pyridine-3-carbonyl]-phenyl}-amide]: in data set [1], the “turbidity threshold (L, M, H) 1.4” value was “L (low solubility if the threshold concentration is <31.3 μM)”; the “turbidity threshold (L, M, H) 4.5” value is given as “L (low solubility if the threshold concentration is <31.3 μM)”; the “turbidity threshold (L, M, H) 6.8” value is reported as “L (low solubility if the threshold concentration is <31.3 μM)”; the “turbidity threshold (L, M, H) 7.4” value is on record as “L (low solubility if the threshold concentration is <31.3 μM)”. In addition, the IC50 at CYP3A4(BQ) was over 10 µM.

Regarding `CCCS(=O)(=O)Nc1ccc(F)c(C(=O)c2c[nH]c3ncc(-c4cnn(C5CCNCC5)c4)cc23)c1F` [P-1002, Propane-1-sulfonic acid {2,4-difluoro-3-[5-(1-piperidin-4-yl-1H-pyrazol-4-yl)-1H-pyrrolo[2,3-b]pyridine-3-carbonyl]-phenyl}-amide], in data set [1], the “turbidity threshold (L, M, H) 1.4” value was “M (moderate solubility if the threshold concentration is 31.3 μM to 250 μM)”; the “turbidity threshold (L, M, H) 4.5” value is “M (moderate solubility if the threshold concentration is 31.3 μM to 250 μM)”; the “turbidity threshold (L, M, H) 6.8” value is reported as “L (low solubility if the threshold concentration is <31.3 μM)”; the “turbidity threshold (L, M, H) 7.4” value is listed as “M (moderate solubility if the threshold concentration is 31.3 μM to 250 μM)”. Also, the IC50 at CYP3A4(BQ) was over 10 µM.

For `CCCS(=O)(=O)Nc1ccc(F)c(C(=O)c2c[nH]c3ncc(-c4cccc5nn(C)cc45)cc23)c1F` [P-0015, Propane-1-sulfonic acid {2,4-difluoro-3-[5-(2-methyl-2H-indazol-4-yl)-1H-pyrrolo[2,3-b]pyridine-3-carbonyl]-phenyl}-amide], in data set [1], the “turbidity threshold (L, M, H) 1.4” value is recorded as “L (low solubility if the threshold concentration is <31.3 μM)”; the “turbidity threshold (L, M, H) 4.5” value is reported as “L (low solubility if the threshold concentration is <31.3 μM)”; the “turbidity threshold (L, M, H) 6.8” value is given as “L (low solubility if the threshold concentration is <31.3 μM)”; the “turbidity threshold (L, M, H) 7.4” value is “L (low solubility if the threshold concentration is <31.3 μM)”. The IC50 on CYP3A4(BQ) is over 10 µM.

For `CCCS(=O)(=O)Nc1ccc(F)c(C(=O)c2c[nH]c3ncc(-c4ccc5ncsc5c4)cc23)c1F` [P-0020, Propane-1-sulfonic acid [3-(5-benzothiazol-6-yl-1H-pyrrolo[2,3-b]pyridine-3-carbonyl)-2,4-difluoro-phenyl]-amide], the IC50 on CYP3A4(BQ) is over 10 µM.

As to `CCCS(=O)(=O)Nc1ccc(F)c(C(=O)c2c[nH]c3ncc(-c4ccc5[nH]cc(C)c5c4)cc23)c1F` [P-0023, Propane-1-sulfonic acid {2,4-difluoro-3-[5-(3-methyl-1H-indol-5-yl)-1H-pyrrolo[2,3-b]pyridine-3-carbonyl]-phenyl}-amide], the IC50 at CYP3A4(BQ) is over 10 µM.

On to `CCCS(=O)(=O)Nc1ccc(F)c(C(=O)c2c[nH]c3ncc(-c4ccc5cncnc5c4)cc23)c1F` [P-0025, Propane-1-sulfonic acid [2,4-difluoro-3-(5-quinazolin-7-yl-1H-pyrrolo[2,3-b]pyridine-3-carbonyl)-phenyl]-amide], for which, on CYP3A4(BQ), the IC50 is over 10 µM.

Regarding `Cc1ncc(-c2cnc3[nH]cc(C(=O)c4c(F)ccc(NS(=O)(=O)c5cc(F)ccc5F)c4F)c3c2)cn1` [P-1503, N-{2,4-Difluoro-3-[5-(2-methyl-pyrimidin-5-yl)-1H-pyrrolo[2,3-b]pyridine-3-carbonyl]-phenyl}-2,5-difluoro-benzenesulfonamide], in data set [1], the “turbidity threshold (L, M, H) 1.4” value was “L (low solubility if the threshold concentration is <31.3 μM)”; the “turbidity threshold (L, M, H) 4.5” value is recorded as “L (low solubility if the threshold concentration is <31.3 μM)”; the “turbidity threshold (L, M, H) 6.8” value is “L (low solubility if the threshold concentration is <31.3 μM)”; the “turbidity threshold (L, M, H) 7.4” value is “M (moderate solubility if the threshold concentration is 31.3 μM to 250 μM)”. On CYP3A4(BQ), the IC50 was over 10 µM.

Regarding `CCCS(=O)(=O)Nc1ccc(F)c(C(=O)c2c[nH]c3ncc(-c4ccc5cn(C)nc5c4)cc23)c1F` [P-0011, Propane-1-sulfonic acid {2,4-difluoro-3-[5-(2-methyl-2H-indazol-6-yl)-1H-pyrrolo[2,3-b]pyridine-3-carbonyl]-phenyl}-amide], in data set [1], the “turbidity threshold (L, M, H) 1.4” value was “L (low solubility if the threshold concentration is <31.3 μM)”; the “turbidity threshold (L, M, H) 4.5” value is reported as “L (low solubility if the threshold concentration is <31.3 μM)”; the “turbidity threshold (L, M, H) 6.8” value is reported as “M (moderate solubility if the threshold concentration is 31.3 μM to 250 μM)”; the “turbidity threshold (L, M, H) 7.4” value is given as “L (low solubility if the threshold concentration is <31.3 μM)”. For the same molecule, the IC50 on CYP3A4(BQ) is over 10 µM.

In the case of `O=C(c1c(F)ccc(NS(=O)(=O)c2ccc(C(F)(F)F)cc2)c1F)c1c[nH]c2ncc(-c3cnn(C4CCNCC4)c3)cc12` [P-1004, N-{2,4-Difluoro-3-[5-(1-piperidin-4-yl-1H-pyrazol-4-yl)-1H-pyrrolo[2,3-b]pyridine-3-carbonyl]-phenyl}-4-trifluoromethyl-benzenesulfonamide], in data set [1], the “turbidity threshold (L, M, H) 1.4” value is given as “L (low solubility if the threshold concentration is <31.3 μM)”; the “turbidity threshold (L, M, H) 4.5” value is “L (low solubility if the threshold concentration is <31.3 μM)”; the “turbidity threshold (L, M, H) 6.8” value is reported as “L (low solubility if the threshold concentration is <31.3 μM)”; the “turbidity threshold (L, M, H) 7.4” value is recorded as “L (low solubility if the threshold concentration is <31.3 μM)”. Further, at CYP3A4(BQ), the IC50 was over 10 µM.
